# Activity calls are given as the source filed them.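 How the source made its calls: active means growth-inhibition EC50 no more than tenfold above the top tested dose; inconclusive means flat fit between 30% and 70% inhibition, or unreliable fit; inactive means EC50 more than tenfold above the top tested dose.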
# Test system: E. coli NEB5alpha growth, BacTiter-Glo luminescence, 4 h
# Test: antibacterial activity against E. coli NEB5alpha – luminescence, counter-screen for MEX-5/POS-1 RNA-binding inhibitor project, dose response (AID 1959);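 further: pUC19-transformed ampicillin-resistant cells grown in LB with ampicillin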
row,SMILES,EC50
1,N=C1/C(=C\c2ccc(SCc3ccccc3)o2)C(=O)N=C2SC(CC(=O)N3CCOCC3)=NN12,> 11 µM (inactive)
2,COC(=O)c1ccc(-n2c(C)cc(C(=O)COC(=O)CC3Sc4ccccc4NC3=O)c2C)cc1 (stereo not given),> 11 µM (inactive)
3,CC(=O)C1=C(c2cccc([N+](=O)[O-])c2)N(C(C)=O)n2c(C)nnc2S1,> 11 µM (inactive)
4,O=C(NC1CC1)C1Nc2ccc(OC(F)(F)F)cc2C2C=CCC12 (stereo not given),> 11 µM (inactive)
5,O=c1c(/C=C(\O)c2ccccc2)nc2ccccc2n1-c1ccccc1,> 11 µM (inactive)
6,N#CC1=C(N)C2=C(N3CCCCC3)CCCC2C1(C#N)C#N (stereo not given),> 11 µM (inactive)
7,CC(=O)N(C)c1ccc(N=NC2C(=O)N(C(N)=S)N=C2C)cc1 (stereo not given),> 11 µM (inactive)
8,NC(=O)c1c(NC(=O)c2ccccc2)sc2c1CCN(Cc1ccccc1)C2,> 11 µM (inactive)
9,O=C1c2ccccc2C(=O)C1c1ccc2ccccc2n1,> 11 µM (inactive)
10,Cc1ccc(S(=O)(=O)NNC(=S)NC(=O)c2ccc([N+](=O)[O-])cc2)cc1,> 11 µM (inactive)
11,CCOC(=O)c1ccc2c(c1)C1C=CCC1C(C(=O)OCC)N2 (stereo not given),> 11 µM (inactive)
12,Cc1cc(C=C2C(=O)N(C)C(=S)N(C)C2=O)c(C)n1C1CCCC1,> 11 µM (inactive)
13,CCOC(=O)c1cc2c(=O)n3ccccc3nc2n(C(C)C)c1=NC(=O)c1ccncc1,> 11 µM (inactive)
14,CCOC(=O)C1Nc2ccc(C(F)(F)F)cc2C2C=CCC12 (stereo not given),> 11 µM (inactive)
15,Oc1ccc(-c2cnns2)c(O)c1,> 11 µM (inactive)
16,COC(=O)c1[nH]c2cc(OC)c(OC)cc2c1/C=N/Nc1ccccc1,> 11 µM (inactive)
17,Cc1c(C(=O)O)cccc1-n1c(C)cc(/C=C2\C(=O)NC(=O)N(c3ccc4c(c3)OCO4)C2=O)c1C,> 11 µM (inactive)
18,N=c1c(S(=O)(=O)c2ccc(Cl)cc2)cc2c(=O)n3ccccc3nc2n1C1CCCCC1,> 11 µM (inactive)
19,C=CCN=c1scc(-c2ccco2)n1/N=C/c1ccc(O)c(O)c1O,> 11 µM (inactive)
20,O=S(=O)([N-]c1nc2ccccc2nc1-[n+]1ccc(CCCc2ccccc2)cc1)c1cccs1,> 11 µM (inactive)
21,CN(C)c1ccc(N=Cc2c(O)n(CCC3=CCCCC3)c(=O)[nH]c2=O)cc1,> 11 µM (inactive)
22,CCC(C)/C=C(C)/C=C/C1=CC2=C(Cl)C(=O)C(C)(OC(C)=O)C(=O)C2=CO1 (stereo not given),> 11 µM (inactive)
23,O=C1c2cccc3c(O)ccc(c23)C(=O)N1Cc1ccccc1,> 11 µM (inactive)
24,COC(=O)CNC(=O)C1Nc2ccccc2C2C=CCC12 (stereo not given),> 11 µM (inactive)

row,SMILES,EC50
1,Cn1nc(C(F)(F)F)cc1-c1ccc(/C=C(\C#N)C(=O)c2ccccc2)s1,> 11 µM (inactive)
2,O=C(O)c1ccc2c(c1)C1C=CCC1C(c1ccncc1)N2 (stereo not given),> 11 µM (inactive)
3,COc1ccc2c3c([nH]c2c1)C1CC2C(CC(O)C(OC)C2C(=O)O)CN1CC3 (stereo not given),> 11 µM (inactive)
4,O=C(N/N=C/c1c(O)n(CCc2ccccc2)c(=O)[nH]c1=O)c1ccccc1,> 11 µM (inactive)
5,O=c1[nH][nH]c2cc(=O)n(-c3ccc(Cl)cc3)nc12,> 11 µM (inactive)
6,N#C/C(=C(/O)c1cc2ccccc2o1)c1nc2ccccc2s1,> 11 µM (inactive)
7,Cc1ccc2nc3sc(C(=O)N4CCOCC4)c(N)c3cc2c1,> 11 µM (inactive)
8,O=c1[nH]c(=O)n(-c2ccc(Br)cc2)c(O)c1C=NCCN1CCCCC1,> 11 µM (inactive)
9,CC(=O)c1sc2nc(-c3cccs3)cc(C(F)(F)F)c2c1N,> 11 µM (inactive)
10,C/C(N)=C(/C#N)C(=O)CSc1ncnc2ccccc12,> 11 µM (inactive)
11,COCCN1CCC(CNCc2cn[nH]c2-c2ccc(C)c(C)c2)C1 (stereo not given),> 11 µM (inactive)
12,Cc1cccc(/C=C(\C(=O)C(=O)O)c2ccc3ccccc3n2)c1,> 11 µM (inactive)
13,ON=C1/C(=N\O)CC2(C/C1=N/O)OCCO2,> 11 µM (inactive)
14,O=C(/C=C/Nc1ccc([N+](=O)[O-])cc1)c1ccc(Br)cc1,> 11 µM (inactive)
15,COc1ccccc1N1C(=O)C(Cl)=C(Nc2ccccc2O)C1=O,> 11 µM (inactive)
16,CCOC(=O)c1c(NC(=O)Nc2ccc(F)cc2)sc2c1CCN(C)C2,> 11 µM (inactive)
17,CCN(CC)c1ccc(C=N/C(C#N)=C(\N)C#N)cc1,> 11 µM (inactive)
18,O=c1ccc2[n+]([O-])c3ccc(O)cc3oc-2c1,> 11 µM (inactive)
19,CC1(CCl)N([O-])C2=C(CCCC2)[N+]1=O (stereo not given),> 11 µM (inactive)
20,O=C(Nc1ccnn1C1CCN(CC2CC=CCC2)CC1)c1ccccc1 (stereo not given),> 11 µM (inactive)
21,COC(=O)c1ccccc1NCc1cc(=O)oc2cc(O)c(O)cc12,> 11 µM (inactive)
22,Cc1cc(NS(=O)(=O)c2ccc(Nc3nc(-c4sc(N)nc4C)cs3)cc2)no1,> 11 µM (inactive)
23,O=C(N/N=C\c1ccc(-c2ccc(Cl)c(Cl)c2)o1)C(=O)N1CCCC1,> 11 µM (inactive)
24,Cc1cc(C)c2c(=O)[nH]c(=O)n(Cc3ccccc3)c2n1,> 11 µM (inactive)

row,SMILES,EC50
1,COc1ccc(-c2nnc(Nc3nc4c(OC)cccc4s3)o2)c(OC)c1,> 11 µM (inactive)
2,COC(=O)C1=C(C)N(c2ccc(Cl)cc2)/C(=C/c2cccs2)C1=O,> 11 µM (inactive)
3,Nc1ccc2nc3c(=O)[nH]c(=S)[nH]c3nc2c1,> 11 µM (inactive)
4,Clc1ccc(C2=CC(c3ccco3)n3ncnc3N2)cc1 (stereo not given),> 11 µM (inactive)
5,COc1cc(O)c(C(=O)O)c(-c2cc(O)c(O)cc2C)c1,> 11 µM (inactive)
6,O=C(O)C1Nc2c(cccc2C(F)(F)F)C2C=CCC12 (stereo not given),> 11 µM (inactive)
7,CC1(OC(=O)c2cnc3ccccc3n2)C(=O)C=C2C=C(c3ccc(C#N)cc3)OC=C2C1=O (stereo not given),> 11 µM (inactive)
8,COc1ccc(C2OC34CCCCC3C(C#N)(C#N)C2(C#N)C(=N)O4)cc1 (stereo not given),> 11 µM (inactive)
9,CCc1ccccc1N1C(=O)NC(=O)/C(=C\c2cc(C)n(C)c2C)C1=O,> 11 µM (inactive)
10,O=[N+]([O-])c1ccc(N=Nc2ncc[nH]2)cc1,> 11 µM (inactive)
11,Cc1c(NC(=O)c2coc(=O)c(Br)c2)c(=O)n(-c2ccccc2)n1C,> 11 µM (inactive)
12,Cc1cccc(N=Nc2c(O)[nH]c3ccc(Br)cc23)c1,> 11 µM (inactive)
13,O=C(O)C1Nc2c(C(F)(F)F)ccc(Cl)c2C2C=CCC12 (stereo not given),> 11 µM (inactive)
14,O=c1[nH]c(CN2CCc3ccccc3C2)nc2ccccc12,> 11 µM (inactive)
15,C=CCn1cc(C=C2C(=O)NC(=O)NC2=O)c2ccccc21,> 11 µM (inactive)
16,Cc1n[nH]c(C)c1N1C(=O)c2cccc3c(N4CCCCCC4)ccc(c23)C1=O,> 11 µM (inactive)
17,COC(=O)c1cc(C(=O)OC)cc(-n2c(C)cc(C(=O)CC#N)c2C)c1,> 11 µM (inactive)
18,Cc1ccc(S(=O)(=O)C(C#N)c2nc3ccccc3nc2N2CC(C)OC(C)C2)cc1C (stereo not given),> 11 µM (inactive)
19,O=C(NNC(=O)c1cc(Cl)ccc1O)c1cccc(S(=O)(=O)N2CCOCC2)c1,> 11 µM (inactive)
20,Oc1ccc(/C=C/c2cc(O)cc(O)c2)cc1,> 11 µM (inactive)
21,C=CCOc1cccc(C2C(C(=O)c3ccc(C)o3)=C(O)C(=O)N2c2nccs2)c1 (stereo not given),> 11 µM (inactive)
22,COC(=O)[C@@]1(C#N)[C@@H]2C=CC(C(C)=O)=CN2[C@@H](C(N)=O)[C@@H]1c1ccc(F)cc1,> 11 µM (inactive)
23,N=c1c(S(=O)(=O)c2ccc(Cl)cc2)cc2c(=O)n3ccccc3nc2n1CCc1ccccc1,> 11 µM (inactive)
24,Cn1c(O)c(/C=C2\C=c3ccccc3=NC2=O)c(=O)n(C)c1=O,> 11 µM (inactive)

row,SMILES,EC50
1,N#CC1=C(N)OC2=C(C(=O)CC(c3ccco3)C2)C1c1ccc(OCc2c(F)cccc2Cl)cc1 (stereo not given),> 11 µM (inactive)
2,Cc1cccn2c(=O)c3cc(C(=O)NC4CCCCC4)c(=N)n(Cc4ccccc4)c3nc12,> 11 µM (inactive)
3,CCOC(=O)c1c2ccc(OCC(=O)N/N=C/c3ccc(C)cc3)cc2n2ccccc12,> 11 µM (inactive)
4,O=C(O)c1ccc(-n2cccc2)cc1O,> 11 µM (inactive)
5,Cc1cnc(C(=O)NNC(=O)c2ccc(Br)cc2)cn1,> 11 µM (inactive)
6,CC(=O)N=Cc1c(C)c(C#N)c(=O)n(C)c1O,> 11 µM (inactive)
7,Cc1nonc1OCCNCCNc1ccc([N+](=O)[O-])c2cccnc12,> 11 µM (inactive)
8,Oc1[nH]c2ccccc2c1N=Nc1ccc(F)cc1,> 11 µM (inactive)
9,COc1ccc(N=C(C)c2sc3ccccc3c2O)cc1,> 11 µM (inactive)
10,Cc1cc2c3c(c1)C1(C(=O)N3C(C)(C)CC2C)C(C#N)=C(N)OC2=C1C(=O)CC(C)(C)C2 (stereo not given),> 11 µM (inactive)
11,CC1(O)C(=O)C=C2C=C(C3CC3)OC=C2C1=O (stereo not given),> 11 µM (inactive)
12,COc1ccc(C2C(C#N)=C(/N=C/N3CCN(C)CC3)OC3=C2C(=O)CC(C)(C)C3)cc1OC (stereo not given),> 11 µM (inactive)
13,CCCN1CCc2cccc3c2[C@H]1Cc1ccc(O)c(O)c1-3,> 11 µM (inactive)
14,CCCCN(C(=O)c1ccc([N+](=O)[O-])o1)c1c(N)n(CC(C)C)c(=O)[nH]c1=O,> 11 µM (inactive)
15,COc1cccc(C(=O)NCC2CCN(c3ccc(S(=O)(=O)N4CCOCC4)cc3)CC2)c1,> 11 µM (inactive)
16,CC1=C(C#N)C(=O)NC(=O)/C1=C/c1ccc(-c2ccc(S(N)(=O)=O)cc2)o1,> 11 µM (inactive)
17,COc1cc2c3nnc(-c4ccccc4)c-3cn(Cc3ccccc3F)c2cc1OC,> 11 µM (inactive)
18,CSc1nncc(/C(C)=N\Nc2ccccc2)n1,> 11 µM (inactive)
19,CC(C)(C)OC(=O)NCCCC1=CC2=CC(=O)C(C)(OC(=O)C3CCCC3)C(=O)C2=CO1 (stereo not given),> 11 µM (inactive)
20,COc1ccc(N=Cc2c(O)ccc3ccccc23)cc1,> 11 µM (inactive)
21,C=CCSc1nnc(N2C(=O)C(O)=C(C(=O)c3ccco3)C2c2ccc(F)cc2)s1 (stereo not given),> 11 µM (inactive)
22,CC(C)(C)OC(=O)NCCCC1=CC2=CC(=O)C(C)(OC(=O)c3ccc(Cl)nc3)C(=O)C2=CO1 (stereo not given),> 11 µM (inactive)
23,CCOC(=O)c1ccc(N/C=C2\CCCCC2=O)cc1,> 11 µM (inactive)

# Source: PubChem BioAssay AID1959 (Broad Institute, 2009)
